How the values were obtained:
[1] = test system: acrolein that is generated from a cell; experiment: Sensitivity comparison with conventional detection reagent: staining of normal and cancer cells; assay type: cell-based, human; conditions: for acrolein concentration level that can be detected: acrolein generated from a cell, suggested from FIG. 3 staining; for identification of localization and morphology of a cancer cell: at a low reagent concentration (0.25-1.5 μM, 5 minutes)
Experimental: Respective detection sensitivities of a detection reagent (TAMRA-PhN3) represented by Formula below and the compound 7 (TAMRA-di-iPr-PhN3) prepared in Example 1 were compared. Cells illustrated in FIG. 3 (for description of cell strains, see also Reference Example 1) were each immersed in an aqueous solution, containing the detection reagent at a concentration of 0.25 μM, 0.75 μM, or 1.5 μM, for 5 minutes so as to be stained.

acrolein = experiment: Selective detection of acrolein: fluorescence staining of 11 normal and cancer cell lines; assay type: cell-based, human; conditions: 2.5-22.5 μM, 30 minutes at room temperature, with a higher concentration; FIG. 1
Experimental: The following 11 cell lines were seeded in 96 wells (4×10^4 cells/well) and left to stand for 24 hours before treatment so that the cell lines were adhered to the wells.
Normal cell: normal human diploid fibroblast (TIG3), normal human umbilical vein endothelial cell (HUVEC), normal human mammary gland cell (MCF10A)
Cancer cell: SKBR3 (human breast cancer cell), MDA-MB-231 (human breast cancer cell), BxPC3 (human pancreatic cancer cell), HT29 (human colonic cancer cell), MCF7 (human breast cancer cell), A549 (human lung cancer cell), HeLaS3 (human cervical cancer cell), PC3 (human prostatic cancer cell)
The cells were treated by adding, to media, 100 μL of TAMRA-PhN3 solutions (2.5 μM, 7.5 μM, 12.5 μM, 17.5 μM, 22.5 μM) described in Non-patent Literature 1 and Example 2. Then, the cells were incubated at room temperature for 30 minutes. The cells were fixed by paraformaldehyde, and fluorescence was recorded with use of Spectra Max M2e (Molecular Devices, LLC.).
In FIG. 1, the vertical axis represents a relative fluorescence intensity (arbitrary unit), and the horizontal axis represents a result of staining (fluorescence) of each normal or cancer cell.

[2] = test system: invasive ductal carcinoma-positive, ductal carcinoma in situ-positive and cancer-negative tissue; experiment: Staining of cancer tissue in a living tissue state; assay type: cell-based; conditions: 5, 10, 20 μM, 5 minutes at room temperature; FIG. 2
Experimental: An invasive ductal carcinoma-positive tissue (IDC-positive), a ductal carcinoma in situ-positive tissue (DCIS-positive), and a cancer-negative tissue (Cancer-negative) were each immersed in a TAMRA-PhN3 solution (5 μM, 10 μM, 20 μM). These tissues were incubated at room temperature for 5 minutes. The tissues were each stained in a living tissue state. […] Note that cell nuclei are stained with DAPI.
In FIG. 2, “Eyesight” indicates a photograph of each tissue that has been stained, and “Microscopy (×1)”, “Microscopy (×200)”, and “Microscopy (×400)” each indicate results of observations carried out with use of microscopes having respective magnifications of 1 time, 200 times, and 400 times.

Row | Structure (SMILES) | acrolein concentration level that can be detected [1] | identification of localization and morphology of a cancer cell [1] | detection sensitivity relative to TAMRA-PhN3 ([1]; cells immersed in aqueous solution of reagent at 0.25, 0.75 or 1.5 μM for 5 minutes, FIG. 3) | reaction product with acrolein (relative fluorescence intensity) (acrolein) | observation of localization and morphology of a cancer cell in a living tissue [2]
1 | CC(C)c1cc(CNC(=O)c2ccc(-c3c4ccc(=[N+](C)C)cc-4oc4cc(N(C)C)ccc34)c(C(=O)[O-])c2)cc(C(C)C)c1N=[N+]=[N-] [compound 7, 5-carboxymethylrhodamine-diisopropylphenylazide] | pM level | possible to identify localization and morphology of a cancer cell | not less than 100 times |  | 
2 | CN(C)c1ccc2c(-c3ccc(C(=O)NCc4ccc(N=[N+]=[N-])cc4)cc3C(=O)[O-])c3ccc(=[N+](C)C)cc-3oc2c1 [TAMRA-PhN3] | nM-level | cannot be identified |  | increase in reaction product (fluorescence intensity) | possible to observe localization and morphology of a cancer cell in detail in a living tissue

Source: US20210179853A1, “DRUG THAT REACTS WITH ACROLEIN, USE THEREOF AND NOVEL COMPOUND” (RIKEN, priority 2018, published 2021)
